The values that follow are results of earlier work, collected in patent publication US20260199417A1, “OPHTHALMIC FORMULATION FOR TOPICAL USE CONTAINING HELENALIN, 11A,13-DIHYDRO HELENALIN AND FLAVONOIDS FROM ARNICA MONTANA EXTRACT AND SODIUM HYALURONATE, AND USE THEREOF BY HUMANS TO TREAT DRY EYE SYNDROME” (CENTRO DE RETINA MÉDICA Y QUIRÚRGICA, S.C., priority 2022, published 2026).

This data set relates to NF kappa-B. Conditions: T cells, B cells, and epithelial cells.

As for `C[C@@H]1C[C@H]2OC(=O)[C@@H](C)[C@H]2[C@H](O)[C@]2(C)C(=O)C=C[C@@H]12` [11-α, 13-dihydrohelenalin], the “Activation of NF kappa-B” value is on record as “inhibited”.

Regarding `C=C1C(=O)O[C@@H]2C[C@@H](C)[C@@H]3C=CC(=O)[C@@]3(C)[C@@H](O)[C@H]12` [helenalin], the “Activation of NF kappa-B” value is reported as “inhibited”.
